Assay results from patent US20180064691A1, “Antibacterial compositions” (WOCKHARDT LIMITED, priority 2016, published 2018).

Columns and labels:
Assay in all cases: quantitative drug diffusion assay (zone of inhibition, CLSI)
Assay type in all cases: cell-based
E. coli M-138 = system: E. coli M-138; parameters: key to CLSI susceptibility interpretation: (R): Resistant; (I): Intermediate; (S): Sensitive (Interpretation as per CLSI recommendations, 2010)
Description: (§1) Antibacterial activity of cefepime combination with tazobactam against various bacterial strains, including those bacteria that are known to product one or more beta-lactamase, was investigated in quantitative drug diffusion assay performed as per CLSI recommendations (Clinical and Laboratory Standards Institute (CLSI), performance Standards for Antimicrobial Susceptibility Testing, 20th Informational Supplement, M 100-S20, Volume 30, No. 1, 2010).
(§2) In a typical study, overnight grown bacterial cultures after appropriate dilution were seed inoculated in the molten, cooled agar media and plates poured. Antibacterial agents containing 6 mm diameter discs were placed on the top of the agar surface. Zone of inhibition based observation was performed after 16 to 18 hours of incubation at 35±2° C. in ambient air. These assays are routinely used in determining possibility of treating a particular infection using given antibacterial agent or a composition. In general, zone inhibition values in the sensitive (S) range indicate that the strain is susceptible to that antibacterial agent or composition. It is generally assumed that the antibacterial agent or the combination under consideration would not be effective in treating the infection, if the zone inhibition values are in the resistant (R) range.

E. coli M50 = system: E. coli M50; parameters: key: (R): Resistant; (I): Intermediate; (S): Sensitive (Interpretation as per CLSI recommendations, 2010); settings: CLSI recommendations, 2010
Description: as §1, §2

E. coli S-112 = system: E. coli S-112; parameters: key: (R): Resistant; (I): Intermediate; (S): Sensitive (Interpretation as per CLSI recommendations, 2010); settings: CLSI recommendations, 2010
Description: as §1, §2

E. coli B-123 = system: E. coli B-123; parameters: key: (R): Resistant; (I): Intermediate; (S): Sensitive (Interpretation as per CLSI recommendations, 2010); settings: CLSI recommendations, 2010
Description: as §1, §2

E. coli B-89 = system: E. coli B-89; parameters: key: (R): Resistant; (I): Intermediate; (S): Sensitive (Interpretation as per CLSI recommendations, 2010); settings: CLSI recommendations, 2010
Description: as §1, §2

E. coli 7MP = system: E. coli 7MP; parameters: key: (R): Resistant; (I): Intermediate; (S): Sensitive (Interpretation as per CLSI recommendations, 2010); settings: CLSI recommendations, 2010
Description: as §1, §2

`CO/N=C(\C(=O)N[C@@H]1C(=O)N2C(C(=O)[O-])=C(C[N+]3(C)CCCC3)CS[C@H]12)c1csc(N)n1` [Cefepime, cefepime] was tested, and the “Zone of Inhibition” value (E. coli M-138; 6 mm discs, 16 to 18 hours at 35±2° C.) was “Nil”, the CLSI susceptibility interpretation (E. coli M-138; CLSI recommendations, 2010) was “(R)” and the CLSI susceptibility interpretation (E. coli M50) was “(R)”. The CLSI susceptibility interpretation (E. coli S-112) was “(I)”, the CLSI susceptibility interpretation (E. coli B-123) was “(R)” and the CLSI susceptibility interpretation (E. coli B-89) was “(R)”. The CLSI susceptibility interpretation (E. coli 7MP) was “(I)”.
